The record followed here is patent US11608323B2 (SYNGENTA LIMITED, priority 2013, dated 2023).

Assay type in all cases: in vivo
Test [1] relates to ALOMY. In words: Pre-emergence herbicidal activity, glasshouse pot test. The conditions noted are these: rate 1000 g/Ha, evaluated after 13 days, scale 0-5. A digest of the protocol:
(§1)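 Visual 0–5 injury score (5 = total damage) taken 13 days after spraying. Treatment applied one day after sowing, before emergence; glasshouse at 24/16 °C day/night, 14 h photoperiod, 65% humidity.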

Test [2] relates to AMARE. Described as above. To be noted: rate 1000 g/Ha, evaluated after 13 days, scale 0-5. In a few lines:
as §1

Test [3] relates to SETFA. The description is as above. To be noted: rate 1000 g/Ha, evaluated after 13 days, scale 0-5. In a few lines: as §1
In test [4] the test system is ABUTH. Described as above. The conditions noted are these: rate 1000 g/Ha, evaluated after 13 days, scale 0-5. A digest of the protocol:
as §1

The subject of test [5] is ECHCG. The test is described as above. To be noted: rate 1000 g/Ha, evaluated after 13 days, scale 0-5. A digest of the protocol:
as §1

In test [6] the test system is ZEAMX. Described as above. The conditions noted are these: rate 1000 g/Ha, evaluated after 13 days, scale 0-5. A digest of the protocol: as §1
Test [7] concerns ALOMY. In words: Post-emergence herbicidal activity, glasshouse pot test. To be noted: Alopecurus myosuroides; application post-emergence; rate 1000 g/Ha; evaluated after 13 days. In a few lines: (§2)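 Pot-grown plants, 8 days after sowing, were sprayed with compound formulated in acetone/water (50:50) with 0.5% Tween 20. Glasshouse conditions 24/16° C day/night, 14 h light, 65% humidity; damage scored after 13 days on a 0 (none) to 5 (total) scale.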

Test [8] deals with AMARE. Described as above. To be noted: Amaranthus retroflexus; application post-emergence; rate 1000 g/Ha; evaluated after 13 days. In a few lines:
as §2

Test [9] deals with SETFA. The test is described as above. The conditions noted are these: Setaria faberi; application post-emergence; rate 1000 g/Ha; evaluated after 13 days. In a few lines:
as §2

In test [10] the test system is ABUTH. The test is described as above. To be noted: Abutilon theophrasti; application post-emergence; rate 1000 g/Ha; evaluated after 13 days. A digest of the protocol: as §2
Test [11] relates to ECHCG. The test is described as above. The conditions noted are these: Echinochloa crus-galli; application post-emergence; rate 1000 g/Ha; evaluated after 13 days. A digest of the protocol: as §2
Test [12] deals with ZEAMX. The test is described as above. To be noted: Zea mays; application post-emergence; rate 1000 g/Ha; evaluated after 13 days. A digest of the protocol:
as §2

Molecules are shown by their SMILES.

`CON1CC(O)N(c2cc(C(F)(F)F)ccn2)C1=O` (stereo not drawn) [Compound A36]: the “ALOMY damage score, application pre-emergence” value (“ALOMY damage score” for short) in the test on ALOMY [1] came out at 2. In addition, the “AMARE damage score, application pre-emergence” value (“AMARE damage score” for short) in the test on AMARE [2] is on record as 5. For the same compound, the “SETFA damage score, application pre-emergence” value (“SETFA damage score” for short) with SETFA [3] was 2. Moreover, the “ABUTH damage score, application pre-emergence” value (“ABUTH damage score” for short) in the test with ABUTH [4] turned out to be 1. Besides, in the test on ECHCG [5], the “ECHCG damage score, application pre-emergence” value (“ECHCG damage score” for short) came out at 4. Besides, the “ZEAMX damage score, application pre-emergence” value (“ZEAMX damage score” for short) in the test with ZEAMX [6] worked out at 0. In the test on ALOMY [7], the “Post-emergence herbicidal activity ALOMY (damage score 0-5)” value (“Post-emergence herbicidal activity ALOMY” for short) came to 4. For the same compound, the “Post-emergence herbicidal activity AMARE (damage score 0-5)” value (shortened to “Post-emergence herbicidal activity AMARE”) in the test with AMARE [8] is on record as 5. In addition, in the test with SETFA [9], the “Post-emergence herbicidal activity SETFA (damage score 0-5)” value (“Post-emergence herbicidal activity SETFA” below) is 3. Besides, the “Post-emergence herbicidal activity ABUTH (damage score 0-5)” value (from here on “Post-emergence herbicidal activity ABUTH”) with ABUTH [10] amounted to 1. Besides, the “Post-emergence herbicidal activity ECHCG (damage score 0-5)” value (shortened to “Post-emergence herbicidal activity ECHCG”) in the test on ECHCG [11] was 5. In addition, the “Post-emergence herbicidal activity ZEAMX (damage score 0-5)” value (“Post-emergence herbicidal activity ZEAMX” below) with ZEAMX [12] is 2.
With `CON1C(=O)N(c2cc(C(F)(F)F)c(Cl)cn2)C(O)C1C` (stereo not drawn) [Compound A50], the “ALOMY damage score” value with ALOMY [1] turned out to be 4. The “AMARE damage score” value with AMARE [2] worked out at 5. In addition, the “SETFA damage score” value with SETFA [3] is on record as 4. Moreover, the “ABUTH damage score” value with ABUTH [4] is 5. In the test on ECHCG [5], the “ECHCG damage score” value was found to be 5. Further, in the test with ZEAMX [6], the “ZEAMX damage score” value is reported as 2. For the same compound, the “Post-emergence herbicidal activity ALOMY” value with ALOMY [7] was 5. For the same compound, the “Post-emergence herbicidal activity AMARE” value with AMARE [8] is given as 5. Further, the “Post-emergence herbicidal activity SETFA” value in the test on SETFA [9] is reported as 5. The “Post-emergence herbicidal activity ABUTH” value in the test on ABUTH [10] amounted to 5. Also, in the test with ECHCG [11], the “Post-emergence herbicidal activity ECHCG” value was 5. Further, the “Post-emergence herbicidal activity ZEAMX” value in the test on ZEAMX [12] was determined as 5.
Turning to `CC1NC(=O)N(c2cc(C(F)(F)F)ccn2)C1O` (stereo not drawn) [Compound A40], in the test on ALOMY [1], the “ALOMY damage score” value worked out at 2. The “AMARE damage score” value in the test on AMARE [2] is on record as 5. Besides, in the test on SETFA [3], the “SETFA damage score” value came to 2. Also, the “ABUTH damage score” value in the test on ABUTH [4] was found to be 4. Moreover, the “ECHCG damage score” value in the test with ECHCG [5] is 3. Further, the “ZEAMX damage score” value with ZEAMX [6] was 2. In addition, the “Post-emergence herbicidal activity ALOMY” value in the test on ALOMY [7] came out at 4. The “Post-emergence herbicidal activity AMARE” value in the test with AMARE [8] stood at 5. For the same compound, the “Post-emergence herbicidal activity SETFA” value in the test on SETFA [9] is recorded as 3. The “Post-emergence herbicidal activity ABUTH” value in the test on ABUTH [10] is on record as 5. In addition, in the test with ECHCG [11], the “Post-emergence herbicidal activity ECHCG” value stood at 4. Moreover, the “Post-emergence herbicidal activity ZEAMX” value in the test on ZEAMX [12] is reported as 1.
As to `CC1C(O)N(c2cc(C(F)(F)F)c(-c3ccccn3)cn2)C(=O)N1C` (stereo not drawn) [Compound A9], the “ALOMY damage score” value in the test with ALOMY [1] was 4. The “AMARE damage score” value in the test with AMARE [2] is on record as 5. The “SETFA damage score” value in the test with SETFA [3] was 5. Further, in the test on ABUTH [4], the “ABUTH damage score” value was 5. In the test with ECHCG [5], the “ECHCG damage score” value was determined as 5. Moreover, the “ZEAMX damage score” value in the test with ZEAMX [6] is on record as 3. For the same compound, the “Post-emergence herbicidal activity ALOMY” value in the test with ALOMY [7] is reported as 5. In the test with AMARE [8], the “Post-emergence herbicidal activity AMARE” value was found to be 5. For the same compound, the “Post-emergence herbicidal activity SETFA” value in the test with SETFA [9] was found to be 5. Moreover, the “Post-emergence herbicidal activity ABUTH” value in the test with ABUTH [10] worked out at 5. Moreover, the “Post-emergence herbicidal activity ECHCG” value with ECHCG [11] worked out at 5. Further, the “Post-emergence herbicidal activity ZEAMX” value with ZEAMX [12] is on record as 4.
As to `CC(=O)Nc1cnc(N2C(=O)N(C)C(C)C2O)cc1C(F)(F)F` (single isomer, unassigned) [Compound A56], in the test with ALOMY [1], the “ALOMY damage score” value amounted to 2. Also, the “AMARE damage score” value in the test on AMARE [2] is listed as 5. Moreover, in the test with SETFA [3], the “SETFA damage score” value is listed as 1. Further, the “ABUTH damage score” value with ABUTH [4] is 5. The “ECHCG damage score” value in the test with ECHCG [5] was found to be 1. Besides, in the test on ZEAMX [6], the “ZEAMX damage score” value came to 0. In addition, the “Post-emergence herbicidal activity ALOMY” value in the test with ALOMY [7] stood at 4. The “Post-emergence herbicidal activity AMARE” value in the test on AMARE [8] was determined as 5. Besides, the “Post-emergence herbicidal activity SETFA” value in the test on SETFA [9] came to 2. Moreover, the “Post-emergence herbicidal activity ABUTH” value with ABUTH [10] was 5. Further, the “Post-emergence herbicidal activity ECHCG” value in the test with ECHCG [11] is recorded as 3. The “Post-emergence herbicidal activity ZEAMX” value in the test with ZEAMX [12] came to 1.
As for `CN1C(=O)N(c2cc(C(F)(F)F)ccn2)C(O)C1C(F)(F)F` (stereo not drawn) [Compound A33, 4-hydroxy-1-methyl-5-(trifluoromethyl)-3-[4-(trifluoromethyl)-2-pyridyl]imidazolidin-2-one], the “ALOMY damage score” value with ALOMY [1] is given as 3. Further, in the test with AMARE [2], the “AMARE damage score” value was determined as 5. In addition, the “SETFA damage score” value in the test with SETFA [3] turned out to be 3. In the test with ABUTH [4], the “ABUTH damage score” value worked out at 4. For the same compound, in the test with ECHCG [5], the “ECHCG damage score” value was determined as 2. Besides, the “ZEAMX damage score” value in the test with ZEAMX [6] was 0. Also, the “Post-emergence herbicidal activity ALOMY” value in the test with ALOMY [7] came out at 4. The “Post-emergence herbicidal activity AMARE” value in the test on AMARE [8] came out at 3. Also, in the test on SETFA [9], the “Post-emergence herbicidal activity SETFA” value is 2. The “Post-emergence herbicidal activity ABUTH” value in the test with ABUTH [10] was 5. In the test with ECHCG [11], the “Post-emergence herbicidal activity ECHCG” value is given as 1. Moreover, in the test with ZEAMX [12], the “Post-emergence herbicidal activity ZEAMX” value worked out at 1.
As for `COc1ncc(-c2cnc(N3C(=O)N(C)C(C)C3O)cc2C(F)(F)F)cn1` (stereo not drawn) [Compound A22], the “ALOMY damage score” value in the test on ALOMY [1] amounted to 4. In addition, the “AMARE damage score” value with AMARE [2] was found to be 5. The “SETFA damage score” value in the test on SETFA [3] amounted to 5. In addition, the “ABUTH damage score” value in the test on ABUTH [4] amounted to 5. In addition, the “ECHCG damage score” value with ECHCG [5] was 5. For the same compound, in the test with ZEAMX [6], the “ZEAMX damage score” value stood at 3. The “Post-emergence herbicidal activity ALOMY” value with ALOMY [7] came to 5. Further, the “Post-emergence herbicidal activity AMARE” value with AMARE [8] is 5. Besides, the “Post-emergence herbicidal activity SETFA” value in the test with SETFA [9] came out at 5. The “Post-emergence herbicidal activity ABUTH” value in the test with ABUTH [10] is listed as 5. In addition, the “Post-emergence herbicidal activity ECHCG” value with ECHCG [11] is listed as 5. In addition, the “Post-emergence herbicidal activity ZEAMX” value in the test on ZEAMX [12] stood at 5.
In the case of `CCOC1C(O)N(c2cc(C(F)(F)F)ccn2)C(=O)N1CC` (stereo not drawn) [Compound A29], the “ALOMY damage score” value with ALOMY [1] is listed as 1. Besides, the “AMARE damage score” value in the test on AMARE [2] amounted to 5. Besides, the “SETFA damage score” value with SETFA [3] was found to be 2. Moreover, in the test on ABUTH [4], the “ABUTH damage score” value is on record as 5. In the test on ECHCG [5], the “ECHCG damage score” value is reported as 1. Besides, in the test with ZEAMX [6], the “ZEAMX damage score” value is given as 1. The “Post-emergence herbicidal activity ALOMY” value with ALOMY [7] stood at 4. In addition, the “Post-emergence herbicidal activity AMARE” value in the test with AMARE [8] turned out to be 5. For the same compound, the “Post-emergence herbicidal activity SETFA” value in the test on SETFA [9] is 3. Further, the “Post-emergence herbicidal activity ABUTH” value in the test on ABUTH [10] was 5. In the test on ECHCG [11], the “Post-emergence herbicidal activity ECHCG” value came to 4. In addition, the “Post-emergence herbicidal activity ZEAMX” value in the test with ZEAMX [12] was found to be 2.
As for `Cc1ccnc(N2C(=O)N(C)C(C)C2O)c1` (single isomer, unassigned) [Compound A27], the “ALOMY damage score” value in the test with ALOMY [1] was 3. Besides, in the test with AMARE [2], the “AMARE damage score” value is given as 5. The “SETFA damage score” value in the test on SETFA [3] amounted to 4. Further, the “ABUTH damage score” value with ABUTH [4] came out at 4. Besides, in the test with ECHCG [5], the “ECHCG damage score” value is 4. The “ZEAMX damage score” value in the test with ZEAMX [6] is 3. Also, the “Post-emergence herbicidal activity ALOMY” value with ALOMY [7] is given as 3. In the test with AMARE [8], the “Post-emergence herbicidal activity AMARE” value was found to be 5. Moreover, the “Post-emergence herbicidal activity SETFA” value in the test with SETFA [9] worked out at 3. The “Post-emergence herbicidal activity ABUTH” value with ABUTH [10] worked out at 5. Also, in the test with ECHCG [11], the “Post-emergence herbicidal activity ECHCG” value is 3. In the test with ZEAMX [12], the “Post-emergence herbicidal activity ZEAMX” value was 3.
